Experimental data as given in article PMC4412958 (The Open Medicinal Chemistry Journal, 2015).

Biological target: BACE-1 (Homo sapiens, UniProt P56817)
Test: BACE-1 enzyme assay
Format: biochemical
Details: Boc-protected compound; enzyme- and cell-based screening

BACE-1, sequence (P56817 46-501): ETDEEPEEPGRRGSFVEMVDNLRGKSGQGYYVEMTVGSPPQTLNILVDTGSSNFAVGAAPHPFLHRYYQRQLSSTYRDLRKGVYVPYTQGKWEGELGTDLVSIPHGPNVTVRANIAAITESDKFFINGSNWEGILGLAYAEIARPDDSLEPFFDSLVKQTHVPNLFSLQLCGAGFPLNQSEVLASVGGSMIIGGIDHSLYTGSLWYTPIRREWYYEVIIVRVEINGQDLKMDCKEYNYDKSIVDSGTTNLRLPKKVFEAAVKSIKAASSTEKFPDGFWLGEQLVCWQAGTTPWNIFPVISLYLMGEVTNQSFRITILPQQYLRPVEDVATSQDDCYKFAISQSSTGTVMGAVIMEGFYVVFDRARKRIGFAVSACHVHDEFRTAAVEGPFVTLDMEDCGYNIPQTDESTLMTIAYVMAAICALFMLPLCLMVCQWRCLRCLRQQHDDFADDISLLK

## Cc1cc2cc(c1)C(=O)N[C@H]([C@H](O)CN(Cc1cccc(C(C)C)c1)C(=O)OC(C)(C)C)CCC/C=C/CCCC2=O [Compound 27b, (R)-2-Hydroxy-2-((E)-(S)-16-methyl-2,13-dioxo-3-aza-bicyclo[12.3.1]octadeca-1(17),8,14(18),15-tetraen-4-yl)-ethyl-(3-isopropyl-benzyl)-carbamic acid tert-butyl ester]
  BACE-1 activity (in words): inactive
